Measured values from US9834559B2, “4-Amino-6-phenyl-5,6-dihydroimidazo[1,5-a]pyrazin-3(2H)-one derivatives as inhibitors of beta-secretase (BACE)” (Janssen Pharmaceutica NV, priority 2013, dated 2017).

Tests used:
[1] = test system: Abeta 1-42 produced and secreted by human neuroblastoma SKNBE2 cells expressing hAPP695; assay: Cellular αLisa assay in SKNBE2 cells, Abeta 1-42; format: cell-based; settings: 18 hours incubation, read-out: Cellular αLisa assay in SKNBE2 cells Abeta 42 pIC50 (converted)
Procedure: In two αLisa assays the levels of Abeta total and Abeta 1-42 produced and secreted into the medium of human neuroblastoma SKNBE2 cells are quantified. The assay is based on the human neuroblastoma SKNBE2 expressing the wild type Amyloid Precursor Protein (hAPP695). The compounds are diluted and added to these cells, incubated for 18 hours and then measurements of Abeta 1-42 and Abeta total are taken. Abeta total and Abeta 1-42 are measured by sandwich αLisa. αLisa is a sandwich assay using biotinylated antibody AbN/25 attached to streptavidin coated beads and antibody Ab4G8 or cAb42/26 conjugated acceptor beads for the detection of Abeta total and Abeta 1-42 respectively. In the presence of Abeta total or Abeta 1-42, the beads come into close proximity. The excitation of the donor beads provokes the release of singlet oxygen molecules that trigger a cascade of energy transfer in the acceptor beads, resulting in light emission. Light emission is measured after 1 hour incubation (excitation at […] and emission at 615 nm).
A best-fit curve is fitted by a minimum sum of squares method to the plot of % Controlmin versus compound concentration. From this an IC50 value (inhibitory concentration causing 50% inhibition of activity) can be obtained. • LC=Median of the low control values • =Low control: cells preincubated without compound, without biotinylated Ab in the αLisa • HC=Median of the High control values • =High Control: cells preincubated without compound • % Effect=100−[(sample−LC)/(HC−LC)*100] • % Control=(sample/HC)*100 • % Controlmin=(sample−LC)/(HC−LC)*100

## Cn1cc2n(c1=O)C[C@@](C)(c1cc(NC(=O)c3ccc(C#N)cn3)ccc1F)N=C2N [Compound 1, N-{3-[(6R)-8-Amino-2,6-dimethyl-3-oxo-2,3,5,6-tetrahydroimidazo[1,5-a]pyrazin-6-yl]-4-fluorophenyl}-5-cyanopyridine-2-carboxamide]
[1]
  IC50: 13.2 nM

## Cc1nc(C(=O)Nc2ccc(F)c([C@]3(C)Cn4c(cn(C)c4=O)C(N)=N3)c2)co1 [Compound 3, N-{3-[(6R)-8-Amino-2,6-dimethyl-3-oxo-2,3,5,6-tetrahydroimidazo[1,5-a]pyrazin-6-yl]-4-fluorophenyl}-2-methyl-1,3-oxazole-4-carboxamide]
[1]
  IC50: 57.5 nM

## Cn1cc2n(c1=O)C[C@@](C)(c1cc(NC(=O)c3ccc(Cl)cn3)ccc1F)N=C2N [Compound 4, N-{3-[(6R)-8-amino-2,6-dimethyl-3-oxo-5H-imidazo[1,5-a]pyrazin-6-yl]-4-fluoro-phenyl}-5-chloro-pyridine-2-carboxamide]
other
  melting point: 214.8 °C
[1]
  IC50: 6.31 nM
